Reference: patent US10351547B2, “Somatostatin modulators and uses thereof” (priority 2016, dated 2019)
pEC50: −log10 of the molar value.

Target: human SSTR2 (Homo sapiens (Human), UniProt P30874)
Assay: Human SSTR2 intracellular cAMP functional assay for agonists (HTRF)
Assay type: cell-based
Settings: not given
In short: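 Cells bearing human SSTR2 exposed to compound for 20 minutes at 37 °C; after lysis, cAMP measured by time-resolved fluorescence (HTRF) and converted via a standard curve. EC50 calculated from cAMP versus compound concentration.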

human SSTR2, sequence (P30874 whole entry): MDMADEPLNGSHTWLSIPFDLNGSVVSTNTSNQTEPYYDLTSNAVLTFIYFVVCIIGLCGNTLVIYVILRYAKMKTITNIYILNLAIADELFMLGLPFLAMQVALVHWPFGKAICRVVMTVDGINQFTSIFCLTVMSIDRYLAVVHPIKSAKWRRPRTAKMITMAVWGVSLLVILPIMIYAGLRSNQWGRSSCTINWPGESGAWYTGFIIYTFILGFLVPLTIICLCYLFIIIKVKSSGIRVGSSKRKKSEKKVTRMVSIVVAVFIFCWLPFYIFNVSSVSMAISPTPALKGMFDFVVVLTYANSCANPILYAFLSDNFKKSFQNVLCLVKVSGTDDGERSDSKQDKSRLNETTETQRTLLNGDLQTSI

`Cc1cc(F)cc(-c2cnc3ccc(-c4cc(F)cc(C#N)c4O)cc3c2N2CC(CN3CCOCC3)C2)c1` [2-35, 5-fluoro-3-[3-(3-fluoro-5-methylphenyl)-4-[3-(morpholin-4-ylmethyl)azetidin-1-yl]quinolin-6-yl]-2-hydroxybenzonitrile] was tested. Which pEC50 did it give?
Its pEC50 is 6.00 to 7.00.

With `Cc1cc(F)cc(-c2cnc3ccc(-c4cccc(C#N)c4O)cc3c2N2CC(CN)C2)c1` [2-12, 3-{4-[3-(aminomethyl)azetidin-1-yl]-3-(3-fluoro-5-methylphenyl)quinolin-6-yl}-2-hydroxybenzonitrile] as the compound, how does the pEC50 read?
Its pEC50 is 7.00 to 8.00.

`CC[C@H](N)C1CN(c2c(-c3cc(C)cc(F)c3)cnc3ccc(-c4cc(F)cc(C#N)c4O)cc23)C1` [2-82, 3-(4-{3-[(1S)-1-aminopropyl]azetidin-1-yl}-3-(3-fluoro-5-methylphenyl)quinolin-6-yl)-5-fluoro-2-hydroxybenzonitrile] was tested. Which pEC50 did it give?
Its pEC50 is 7.00 to 8.00.

`Cc1cc(Cl)cc(-c2cnc3ccc(-c4cc(F)cc(C#N)c4O)cc3c2N2CC(CN)C2)c1` [2-22, 3-{4-[3-(aminomethyl)azetidin-1-yl]-3-(3-chloro-5-methylphenyl)quinolin-6-yl}-5-fluoro-2-hydroxybenzonitrile] was tested. Which pEC50 did it give?
The pEC50 was 7.00 to 8.00.

How did the pEC50 turn out when `CO/N=C/c1cc(F)cc(-c2cnc3ccc(-c4cccc(C#N)c4O)cc3c2N2CCC(N)CC2)c1` [2-70, 3-[4-(4-aminopiperidin-1-yl)-3-{3-fluoro-5-[(1E)-(methoxyimino)methyl]phenyl}quinolin-6-yl]-2-hydroxybenzonitrile] was run?
The pEC50 was 7.00 to 8.00.

How did the pEC50 turn out when `NC1CCN(c2c(-c3cc(F)cc(F)c3)cnc3ccc(-c4cc(Cl)c5[nH]c(=O)[nH]c5c4)cc23)CC1` [2-141, 6-[4-(4-aminopiperidin-1-yl)-3-(3,5-difluorophenyl)quinolin-6-yl]-4-chloro-2,3-dihydro-1H-1,3-benzodiazol-2-one] was run?
The pEC50 was 7.00 to 8.00.

`N#Cc1cc(Cl)c(F)c(-c2ccc3ncc(-c4cc(F)cc(F)c4)c(N4CCC(N)CC4)c3c2)c1O` [2-147, 3-[4-(4-aminopiperidin-1-yl)-3-(3,5-difluorophenyl)quinolin-6-yl]-5-chloro-4-fluoro-2-hydroxybenzonitrile] was tested. Which pEC50 did it give?
Its pEC50 is 7.00 to 8.00.

Same assay, conditions: CHO-K1 cells stably expressing human SSTR2; NKH477-stimulated cAMP; read-out: EC50 (inhibition of cAMP activities via human SST2R)

With `Cc1cc(Cl)cc(-c2cnc3ccc(-c4cc(F)cc(C#N)c4O)cc3c2N2CC(C)(CN)C2)c1` [2-15, 3-{4-[3-(aminomethyl)-3-methylazetidin-1-yl]-3-(3-chloro-5-methylphenyl)quinolin-6-yl}-5-fluoro-2-hydroxybenzonitrile] as the compound, how does the pEC50 read?
Its pEC50 is 6.00 to 7.00.

`Cc1cc(F)cc(-c2cnc3ccc(-c4cccc(C#N)c4O)cc3c2N2CC[C@H]3NCCO[C@@H]3C2)c1` (relative stereo) [2-20] was tested. Which pEC50 did it give?
The pEC50 was over 8.00.

How did the pEC50 turn out when `CCONC(=O)Nc1c(F)cc(F)cc1-c1ccc2ncc(-c3cc(C)cc(F)c3)c(N3CCC(N)CC3)c2c1` [2-228, 1-{2-[4-(4-aminopiperidin-1-yl)-3-(3-fluoro-5-methylphenyl)quinolin-6-yl]-4,6-difluorophenyl}-3-ethoxyurea] was run?
Its pEC50 is over 8.00.

`COCOc1c(C#N)cc(F)cc1-c1ccc2ncc(-c3cc(F)cc(F)c3)c(N3CCC(N)CC3)c2c1` [2-194, 3-[4-(4-aminopiperidin-1-yl)-3-(3,5-difluorophenyl)quinolin-6-yl]-5-fluoro-2-(methoxymethoxy)benzonitrile] was tested. Which pEC50 did it give?
The pEC50 was over 8.00.

How did the pEC50 turn out when `NC(=O)c1cc(F)cc(-c2ccc3nnc(-c4cc(F)cc(F)c4)c(N4CCC(N)CC4)c3c2)c1` [1-14, 3-[4-(4-aminopiperidin-1-yl)-3-(3,5-difluorophenyl)cinnolin-6-yl]-5-fluorobenzamide] was run?
The pEC50 was over 8.00.

With `NC(=O)c1cc(F)cc(-c2ccc3nnc(-c4cc(Cl)cc(Cl)c4)c(N4CCC(NCCC(F)(F)F)CC4)c3c2)c1` [1-32, 3-[3-(3,5-dichlorophenyl)-4-{4-[(3,3,3-trifluoropropyl)amino]piperidin-1-yl}cinnolin-6-yl]-5-fluorobenzamide] as the compound, how does the pEC50 read?
The pEC50 was over 8.00.

`N#Cc1cc(F)c(F)c(-c2ccc3ncc(-c4cc(F)cc(F)c4)c(N4CCC(N)CC4)c3c2)c1N` [2-179, 2-amino-3-[4-(4-aminopiperidin-1-yl)-3-(3,5-difluorophenyl)quinolin-6-yl]-4,5-difluorobenzonitrile] was tested. Which pEC50 did it give?
The pEC50 was over 8.00.

`Nc1c(Cl)ccnc1-c1ccc2ncc(-c3cc(F)cc(F)c3)c(N3CC[C@H]4NCCO[C@@H]4C3)c2c1` (relative stereo) [2-275, 2-{4-[trans-octahydro-1H-pyrido[3,4-b]morpholin-6-yl]-3-(3,5-difluorophenyl)quinolin-6-yl}-4-chloropyridin-3-amine] was tested. Which pEC50 did it give?
The pEC50 was over 8.00.

With `N#Cc1cncc(-c2ccc3ncc(-c4cc(F)cc(F)c4)c(N4CC[C@H]5NCCO[C@@H]5C4)c3c2)c1O` [2-254, 5-{4-[trans-octahydro-1H-pyrido[3,4-b]morpholin-6-yl]-3-(3,5-difluorophenyl)quinolin-6-yl}-4-hydroxypyridine-3-carbonitrile] as the compound, how does the pEC50 read?
Its pEC50 is 7.00 to 8.00.

How did the pEC50 turn out when `CO/N=C/c1cccc(-c2ccc3ncc(-c4cc(F)cc(F)c4)c(N4CC[C@H]5NCCO[C@@H]5C4)c3c2)c1O` (racemic) [2-243, 2-{4-[trans-octahydro-1H-pyrido[3,4-b]morpholin-6-yl]-3-(3,5-difluorophenyl)quinolin-6-yl}-6-(methoxyiminomethyl)phenol] was run?
Its pEC50 is over 8.00.

With `COCOc1c(C#N)cccc1-c1ccc2ncc(-c3cc(F)cc(F)c3)c(N3CC[C@@H](N)[C@H](OC)C3)c2c1` [2-84] as the compound, how does the pEC50 read?
Its pEC50 is over 8.00.

How did the pEC50 turn out when `Oc1cccnc1-c1ccc2ncc(-c3cc(F)cc(F)c3)c(N3CC[C@H]4NCCO[C@@H]4C3)c2c1` (relative stereo) [2-263, 2-{4-[trans-octahydro-1H-pyrido[3,4-b]morpholin-6-yl]-3-(3,5-difluorophenyl)quinolin-6-yl}pyridin-3-ol] was run?
Its pEC50 is over 8.00.

How did the pEC50 turn out when `Cc1cc(F)cc(-c2cnc3ccc(-c4cc(F)cc(F)c4NC(=O)N(C)C)cc3c2N2CCC(N)CC2)c1` [2-199, 1-{2-[4-(4-aminopiperidin-1-yl)-3-(3-fluoro-5-methylphenyl)quinolin-6-yl]-4,6-difluorophenyl}-3,3-dimethylurea] was run?
The pEC50 was over 8.00.

`Cn1cc(-c2ccc3ncc(-c4cc(F)cc(F)c4)c(N4CC[C@H]5NCCO[C@@H]5C4)c3c2)c(N)n1` (relative stereo) [2-245, 4-{4-[trans-octahydro-1H-pyrido[3,4-b]morpholin-6-yl]-3-(3,5-difluorophenyl)quinolin-6-yl}-1-methyl-1H-pyrazol-3-amine] was tested. Which pEC50 did it give?
The pEC50 was over 8.00.

How did the pEC50 turn out when `N#Cc1cccc(-c2ccc3ncc(-c4cc(F)cc(F)c4)c(N4CC[C@@H](N)[C@H](C(N)=O)C4)c3c2)c1O` (relative stereo) [2-146, trans-4-Amino-1-[6-(3-cyano-2-hydroxyphenyl)-3-(3,5-difluorophenyl)quinolin-4-yl]piperidine-3-carboxamide] was run?
The pEC50 was under 6.00.

With `Oc1c(F)cccc1-c1ccc2ncc(-c3cc(F)cc(F)c3)c(N3CC[C@H]4NCCO[C@@H]4C3)c2c1` (racemic) [2-144, trans-2-[3-(3,5-difluorophenyl)-4-{octahydro-1H-pyrido[3,4-b]morpholin-6-yl}quinolin-6-yl]-6-fluorophenol] as the compound, how does the pEC50 read?
Its pEC50 is over 8.00.

How did the pEC50 turn out when `CON(C)C(=O)Nc1c(C#N)cc(F)c(F)c1-c1ccc2ncc(-c3cc(F)cc(F)c3)c(N3CCC(N)CC3)c2c1` [2-191, 1-{2-[4-(4-aminopiperidin-1-yl)-3-(3,5-difluorophenyl)quinolin-6-yl]-6-cyano-3,4-difluorophenyl}-3-methoxy-3-methylurea] was run?
Its pEC50 is over 8.00.
